According to patent US12351574B2, “Selective ligands for modulation of GIRK channels” (Northeastern University, priority 2018, dated 2025):

Biological target: T1, GIRK1/4 (Homo sapiens, UniProt P48544+P48549)
T1 sequence (P48549 1-501): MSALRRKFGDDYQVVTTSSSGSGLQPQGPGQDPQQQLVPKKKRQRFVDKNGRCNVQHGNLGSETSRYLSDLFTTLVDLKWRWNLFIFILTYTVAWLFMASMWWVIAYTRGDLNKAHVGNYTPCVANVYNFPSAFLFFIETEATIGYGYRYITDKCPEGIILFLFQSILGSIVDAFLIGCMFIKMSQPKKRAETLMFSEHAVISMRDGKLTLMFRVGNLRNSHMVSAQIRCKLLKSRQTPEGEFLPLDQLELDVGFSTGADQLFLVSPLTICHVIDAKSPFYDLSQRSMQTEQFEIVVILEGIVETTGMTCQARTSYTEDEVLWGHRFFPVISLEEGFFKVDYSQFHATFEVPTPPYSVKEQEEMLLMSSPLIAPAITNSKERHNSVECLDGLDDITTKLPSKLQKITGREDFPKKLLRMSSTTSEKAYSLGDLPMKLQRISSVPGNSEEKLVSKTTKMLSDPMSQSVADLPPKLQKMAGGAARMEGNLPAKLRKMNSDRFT
T1 sequence (P48544 1-419): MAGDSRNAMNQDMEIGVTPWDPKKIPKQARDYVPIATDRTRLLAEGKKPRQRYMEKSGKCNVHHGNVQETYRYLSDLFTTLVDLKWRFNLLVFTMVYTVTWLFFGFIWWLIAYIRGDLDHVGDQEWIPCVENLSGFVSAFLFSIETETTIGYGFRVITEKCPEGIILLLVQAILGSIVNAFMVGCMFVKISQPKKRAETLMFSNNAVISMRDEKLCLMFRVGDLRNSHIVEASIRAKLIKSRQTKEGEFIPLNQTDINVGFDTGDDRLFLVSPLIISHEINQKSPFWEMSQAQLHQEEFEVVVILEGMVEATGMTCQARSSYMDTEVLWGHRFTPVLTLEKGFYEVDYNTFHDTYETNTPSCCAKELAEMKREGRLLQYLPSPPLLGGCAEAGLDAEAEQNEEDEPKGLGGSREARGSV
Assay: two-electrode voltage clamp (TEVC) in Xenopus oocytes expressing GIRK1/4 wild-type
Type: cell-based
Design: expressed in transfected cells; host or cells: Xenopus laevis oocytes (cRNA injection)
Excerpt: Molecular biology: For Xenopus oocyte expression, human GIRK1 and human GIRK4 cDNAs were subcloned into pGEMHE. For mammalian expression, human GIRK1 and human GIRK4 cDNAs were subcloned into pcDNA3 and pcDNA3.1/V5-His B, respectively (Invitrogen). Mouse GIRK2 cDNA was subcloned in the dual-function vector, pXoom. Point mutations were introduced using a standard Pfu-based mutagenesis technique according to the QuikChange protocol (Agilent). Mutations were verified by sequencing.
Xenopus laevis oocyte expression: Plasmid DNAs of GIRK channel subunits were linearized prior to in vitro transcription. Capped RNAs were transcribed using mMESSAGE mMACHINE T7 Transcription Kit (Thermo Fisher Scientific). Xenopus oocytes were surgically extracted, dissociated and defolliculated by collagenase treatment, and microinjected with 50 nl of a water solution containing 1 ng of each GIRK subunit RNA. For TEVC experiments, oocytes were kept 2 days at 17° C. before recording, while for NPo experiments oocytes were incubated for up to 4 days at 17° C.
Xenopus laevis oocyte expression: All cDNA constructs in the pGEMHE vector were linearized using the NheI restriction enzyme, whereas those in the pXoom vector were linearized using the XhoI restriction enzyme. Linearized cDNAs were in vitro-transcribed using the mMessage mMachine® kit (Ambion) kit. Complementary RNA (cRNA) concentrations were quantified by optical density. Xenopus oocytes were surgically extracted, dissociated, and defolliculated by collagenase treatment and microinjected with 50 nl of the desired cRNAs diluted in RNAase-free water. The use of Xenopus laevis frogs for this study was approved by the Institutional Animal Care and Use Committee (IACUC) at Northeastern University. All constructs used in this study were injected to achieve between 1-2 ng per oocyte depending on the channel. Oocytes were incubated for 2 days at 18° C.
Electrophysiology of oocytes: Whole-oocyte currents were measured by conventional two-electrode voltage clamp (TEVC) with a GeneClamp 500 amplifier (Axon Instruments). […] Barium-sensitive currents were normalized to average basal current in the vehicle solutions. The HK solution contained the following: 96 mM KCl, 1 mM NaCl, 1 mM MgCl2, 5 mM KOH/HEPES, pH 7.4. The barium solution consisted of HK+10 mM BaCl2. Five to ten oocytes from the same batch (same frog) were recorded for each group, and the experiments were repeated in at least four batches. Data acquisition and analysis were carried out using pClamp9 (Molecular Devices) and OriginPro (Microcal) software.

| SMILES | GAT1508-induced potassium current, GIRK1/4 (in words) (10 μM, 10 mM K+, holding potential −100 mV) | GAT1508-induced thallium current, GIRK1/4 (in words) (10 μM, 10 mM thallium, holding potential −100 mV) | compound-induced current normalized to the basal current, GIRK1+GIRK4 (10 μM, High Potassium (HK) solution, FIG. 31) | EMAX at GIRK1/4, % relative to ML297 (ML297 considered 100%) [%] | EC50 (TEVC, Xenopus oocytes, GIRK1/4 wild-type) [nM] | EMAX at GIRK1/4 (current normalized to basal current) |
| --- | --- | --- | --- | --- | --- | --- |
| Cc1cc(NC(=O)Nc2ccc(Br)s2)n(-c2ccccc2)n1 [GAT1508, 1-(5-bromothiophen-2-yl)-3-(3-methyl-1-phenyl-1H-pyrazol-5-yl)urea] | not | induced current increases |  |  |  |  |
| Cc1cc(NC(=O)Nc2ccc(F)c(F)c2)n(-c2ccccc2)n1 [ML297, reference compound] |  |  | ~1.75 | 100 | 500 ± 260 | 1.60±0.07 |
